Test systems include U-251; SF-539; SNB-75; SK-MEL-5; NCI/ADR-RES; EKVX; MDA-MB-435; NCI-H460; OVCAR-5; SN12C; HL-60; BT-549; SK-OV-3; CCRF-CEM; Malme-3M; IGROV-1; HCT-15; HOP-62; OVCAR-4; RPMI-8226.
Test in all cases: inhibition of tumour cell growth, NCI panel, 48 h

The structures appear in SMILES notation. Values joined by “and” are separate entries in the source; they are usually repeats but may differ in a detail not shown here. Identical values can stand only once.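 Values below derive from 48-hour exposures of cells grown in 96-well plates, with endpoints linearly interpolated between the two concentrations bracketing the appropriate inhibition level. GI50 marks 50% less growth.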 Active and inactive are the calls of the source. Cut-off read from the data, not from the text of the source: active = GI50 up to about 1.1 µM and inactive = higher.

As for `N#CC12COC3(CCCCC3C1(C#N)C#N)OC2=N` (centres undefined), the GI50 with U-251 was 8.87 µM (inactive); in the experiment on SF-539, 13.9 µM (inactive); in the experiment on SNB-75, 14 µM (inactive); with SK-MEL-5, 11.4 µM (inactive); in the experiment with NCI/ADR-RES, 28.2 µM (inactive); with EKVX, 18.5 µM (inactive). Besides, the GI50 with MDA-MB-435 was 18.9 µM (inactive); in the experiment on NCI-H460, 16 µM (inactive); with OVCAR-5, 16.6 µM (inactive); with SN12C, 12.3 µM (inactive); with HL-60, 2.91 µM (inactive); in the experiment on BT-549 it was 15.4 µM (inactive). The GI50 in the experiment with SK-OV-3 is 45.7 µM (inactive); with CCRF-CEM, 3.53 µM (inactive); in the experiment on Malme-3M, 16.3 µM (inactive); with IGROV-1 it was 14.6 µM (inactive).

As for `C=CCCC(=O)N1CCC(C(=O)OCC)C1=O` (centres undefined), the GI50 with U-251, with SF-539, in the experiment with SNB-75, in the experiment with SK-MEL-5, in the experiment with NCI/ADR-RES and with EKVX was > 100 µM (inactive) throughout. For the same compound, the GI50 in the experiment with MDA-MB-435 was > 100 µM (inactive); with OVCAR-5, > 100 µM (inactive); in the experiment with SN12C it was > 100 µM (inactive); in the experiment with HL-60, > 100 µM (inactive); in the experiment on HCT-15, > 100 µM; with BT-549, > 100 µM (inactive). Besides, the GI50 in the experiment on HOP-62, in the experiment on SK-OV-3, in the experiment with CCRF-CEM, in the experiment on OVCAR-4, in the experiment with Malme-3M and with IGROV-1 was > 100 µM (inactive) each time.

Take `C=C(C)CC1=C(OCC)C(OC)(OCC)C1=O` (centres undefined): the GI50 in the experiment with U-251, with SF-539, in the experiment on SNB-75, with SK-MEL-5, in the experiment with NCI/ADR-RES and in the experiment on EKVX was > 100 µM (inactive) in each case. The GI50 with MDA-MB-435 is > 100 µM (inactive); in the experiment on NCI-H460, > 100 µM (inactive); in the experiment with OVCAR-5, > 100 µM (inactive); with SN12C, > 100 µM (inactive); in the experiment with HL-60, > 100 µM (inactive); in the experiment with HCT-15, > 100 µM. Also, the GI50 is 40.3 µM (inactive) in the experiment on BT-549; > 100 µM (inactive) with HOP-62; > 100 µM (inactive) with SK-OV-3; > 100 µM (inactive) with CCRF-CEM; > 100 µM (inactive) with OVCAR-4; > 100 µM (inactive) with IGROV-1.

Regarding `CC(=O)/C(=C/NC(=S)c1ccncc1)C(=O)Nc1ccccc1C`, the GI50 in the experiment with U-251, in the experiment with SF-539, in the experiment on SNB-75, with SK-MEL-5, in the experiment on NCI/ADR-RES and in the experiment with EKVX was > 100 µM (inactive) in each case. The GI50 in the experiment on MDA-MB-435 was > 100 µM (inactive); with NCI-H460, > 100 µM (inactive); in the experiment with OVCAR-5 it was > 100 µM (inactive); with SN12C, > 100 µM (inactive); in the experiment with HL-60, > 100 µM (inactive); in the experiment with HCT-15, > 100 µM. The GI50 with BT-549, in the experiment on HOP-62, in the experiment with SK-OV-3, in the experiment on OVCAR-4 and in the experiment on IGROV-1 was > 100 µM (inactive) throughout.

Turning to `C=C1C(=O)OC2/C=C(\CO)C(OC(C)=O)CC(O)/C(C)=C/C(OC(=O)C(C)CC)C12` (centres undefined), the GI50 is 30.1 µM (inactive) and 26.9 µM (inactive) in the experiment on U-251; 24.8 µM (inactive) and 19.2 µM (inactive) in the experiment with SF-539; 24.3 µM (inactive) in the experiment with SNB-75; 18.8 µM (inactive) and 17 µM (inactive) in the experiment with SK-MEL-5; > 100 µM (inactive) in the experiment with NCI/ADR-RES; 25.5 µM (inactive) and 25.1 µM (inactive) with EKVX. In addition, the GI50 in the experiment on MDA-MB-435 was 20.3 µM (inactive); in the experiment on NCI-H460, 23.3 µM (inactive) and 38.6 µM (inactive); in the experiment with SN12C, 18.2 µM (inactive) and 20.2 µM (inactive); in the experiment on HL-60, 5.86 µM (inactive) and 4.97 µM (inactive); with HCT-15 it was 38.6 µM and 30.2 µM; in the experiment with BT-549, 19.4 µM (inactive). Moreover, the GI50 in the experiment on HOP-62 is > 100 µM (inactive); in the experiment with SK-OV-3, > 100 µM (inactive); with OVCAR-4 it was 33.5 µM (inactive) and 17.3 µM (inactive); in the experiment with Malme-3M, 13.5 µM (inactive) and 15.3 µM (inactive); with IGROV-1, 38.4 µM (inactive) and 40 µM (inactive).

For the compound `CC(=O)C1=C(C)N2C(=NC3=C(CCc4ccccc43)C2c2cccc(Br)c2)S1` (centres undefined), the GI50 with U-251 is > 100 µM (inactive); in the experiment on SF-539, > 100 µM (inactive); in the experiment with SNB-75, > 100 µM (inactive); with SK-MEL-5, 41.3 µM (inactive); with NCI/ADR-RES it was > 100 µM (inactive); in the experiment on RPMI-8226, 16.8 µM (inactive). For the same compound, the GI50 with EKVX was 11.4 µM (inactive); in the experiment on MDA-MB-435 it was > 100 µM (inactive); with OVCAR-5, > 100 µM (inactive); in the experiment with SN12C, > 100 µM (inactive); in the experiment on HL-60, 25.8 µM (inactive); in the experiment with HCT-15, 74.8 µM. Besides, the GI50 in the experiment on BT-549 is > 100 µM (inactive); in the experiment on HOP-62 it was > 100 µM (inactive); with SK-OV-3 it was > 100 µM (inactive); with CCRF-CEM, 69.7 µM (inactive); in the experiment on OVCAR-4 it was > 100 µM (inactive); in the experiment with IGROV-1 it was 48.2 µM (inactive).

Regarding `O=c1c2c3c(sc2nc2n1N=C(c1ccc(Br)cc1)CS2)CCCC3`, the GI50 in the experiment on U-251, in the experiment with SF-539, with SNB-75, in the experiment with NCI/ADR-RES, with EKVX and with MDA-MB-435 was > 100 µM (inactive) each time. The GI50 is > 100 µM (inactive) in the experiment with NCI-H460; > 100 µM (inactive) in the experiment with OVCAR-5; > 100 µM (inactive) with SN12C; > 100 µM (inactive) in the experiment with HL-60; > 100 µM in the experiment on HCT-15; > 100 µM (inactive) with BT-549. The GI50 with HOP-62, in the experiment on SK-OV-3, with CCRF-CEM, with OVCAR-4, with Malme-3M and in the experiment on IGROV-1 was > 100 µM (inactive) throughout.

Turning to `S=C(NCCc1ccccn1)c1nc[nH]c1C(=S)NCCc1ccccn1`, the GI50 in the experiment on U-251 was 45.5 µM (inactive); with SNB-75, 27.5 µM (inactive); in the experiment with SK-MEL-5, 31.7 µM (inactive); with NCI/ADR-RES, 20.5 µM (inactive); in the experiment on RPMI-8226 it was 26 µM (inactive); in the experiment on EKVX, 83.8 µM (inactive). Further, the GI50 was 30.1 µM (inactive) in the experiment with MDA-MB-435; 24.1 µM (inactive) in the experiment with NCI-H460; > 100 µM (inactive) in the experiment on OVCAR-5; 68.5 µM (inactive) with SN12C; 34.6 µM in the experiment on HCT-15; 42.3 µM (inactive) in the experiment with BT-549. Further, the GI50 in the experiment on HOP-62 is 37.1 µM (inactive); with SK-OV-3 it was > 100 µM (inactive); in the experiment with CCRF-CEM it was 26.1 µM (inactive); in the experiment on OVCAR-4 it was 33.8 µM (inactive); in the experiment on Malme-3M, 35.4 µM (inactive); in the experiment with IGROV-1, 34.9 µM (inactive).

`COC(=O)C12C3C4(C(=O)OC)C1C1(C(=O)OC)C2C3(C(=O)OC)C41C(=O)N(C(C)C)C(C)C` (centres undefined): the GI50 in the experiment with U-251, with SF-539, in the experiment with SNB-75, with SK-MEL-5, with NCI/ADR-RES and in the experiment with EKVX was > 100 µM (inactive) each time. Further, the GI50 in the experiment on MDA-MB-435 is > 100 µM (inactive); in the experiment with NCI-H460, > 100 µM (inactive); in the experiment with OVCAR-5, > 100 µM (inactive); in the experiment on SN12C, > 100 µM (inactive); in the experiment on HL-60 it was > 100 µM (inactive); in the experiment with HCT-15, > 100 µM. Also, the GI50 with BT-549, in the experiment on HOP-62, in the experiment on CCRF-CEM, in the experiment with OVCAR-4 and with IGROV-1 was > 100 µM (inactive) throughout.

For `CN(C)c1nc2n(CCO)c(-c3ccccc3)c(-c3ccccc3)nc-2c(=O)n1`, the GI50 with U-251 was > 100 µM (inactive); in the experiment with SF-539 it was > 100 µM (inactive); in the experiment with SNB-75 it was 21.7 µM (inactive); in the experiment on SK-MEL-5 it was > 100 µM (inactive); in the experiment on NCI/ADR-RES, > 100 µM (inactive); in the experiment on RPMI-8226 it was > 100 µM (inactive). Also, the GI50 is > 100 µM (inactive) with EKVX; > 100 µM (inactive) with MDA-MB-435; > 100 µM (inactive) in the experiment with NCI-H460; > 100 µM (inactive) in the experiment with OVCAR-5; > 100 µM (inactive) in the experiment on SN12C; > 100 µM with HCT-15. Moreover, the GI50 in the experiment with BT-549, with HOP-62, in the experiment on SK-OV-3, in the experiment on CCRF-CEM, in the experiment on OVCAR-4 and with Malme-3M was > 100 µM (inactive) throughout. For the same compound, the GI50 with IGROV-1 was > 100 µM (inactive).

Turning to `CC1(C)SC2C(NC(=O)C(C(=O)O)c3ccccc3)C(=O)N2C1C(=O)O` (centres undefined), the GI50 with U-251 was > 100 µM (inactive); in the experiment on SF-539, > 100 µM (inactive); with SNB-75 it was 92 µM (inactive); with SK-MEL-5, > 100 µM (inactive); with NCI/ADR-RES, > 100 µM (inactive); in the experiment on RPMI-8226 it was > 100 µM (inactive). Moreover, the GI50 with EKVX was > 100 µM (inactive); with MDA-MB-435, > 100 µM (inactive); in the experiment with OVCAR-5 it was > 100 µM (inactive); with SN12C it was > 100 µM (inactive); in the experiment on HL-60, > 100 µM (inactive); in the experiment with HCT-15, > 100 µM. Moreover, the GI50 in the experiment on BT-549, in the experiment on HOP-62, with SK-OV-3, in the experiment with CCRF-CEM, with Malme-3M and in the experiment on IGROV-1 was > 100 µM (inactive) each time.

The record behind these values is ChEMBL document CHEMBL1201862, “PubChem BioAssay data set” (2004).
